Tests used:
[1] = system: IgE antibodies from the serum of patients with atopic eczema; format: binding, human
[2] = system: peripheral blood lymphocytes (PBMC); format: cell-based, human
[3] = system: peripheral blood lymphocytes (PBMC); format: cell-based, human; remark: listed apart in the source
[4] = system: IgE antibodies from the serum of patients with atopic eczema; format: binding, human; remark: listed apart in the source

Row | Substance | IgE binding in the dot blot [1] | IgE binding in the immunoblot [4] | other results
1 | QELDYLTRH [Peptide P1] | weak but clearly detectable IgE binding |  | 
2 | QEEDFLTLH [Peptide P2] | weak but clearly detectable IgE binding |  | Intracellular IFNγ production [2]: P1 suppresses the production of IFNγ, a cytokine which mediates a number of immunological functions, more strongly than P2; Intracellular IL-4 production [2]: is stimulated as a function of the dosage; Ratio between IFNγ and IL-4 (IFNγ+ Th1 cells to IL-4+ Th2 cells) [2]: modified by the peptides as a function of the dosage in favour of the IL-4 producing Th2 lymphocytes; Effect on proliferation of lymphocytes [3]: did not bring to light any significant effects
3 | V Q T N K K K V T A Q E L D Y L T R H (VQTNKKKVTAQELDYLTRH) [Peptide (c)] |  | the only one to exhibit an IgE binding | 
4 | S. aureus enterotoxin B [SEB, reference compound] |  | possible to detect specific IgE antibodies against SEB | 

Source: patent US20060127411A1 (priority 2002, published 2006)
